From BindingDB's records for doi:10.1016/j.ejmech.2018.03.040 (University of Torino, 2018)
pIC50: −log10 of the molar value.

Molecular target: Prostaglandin G/H synthase 2 (COX2, PTGS2) (Homo sapiens) (UniProt P35354)
Assay: Inhibition of human COX2 assessed as reduction in PGF2alpha production by ELISA

Chain of Prostaglandin G/H synthase 2 (COX2, PTGS2) (Homo sapiens) (P35354 whole entry, looked up): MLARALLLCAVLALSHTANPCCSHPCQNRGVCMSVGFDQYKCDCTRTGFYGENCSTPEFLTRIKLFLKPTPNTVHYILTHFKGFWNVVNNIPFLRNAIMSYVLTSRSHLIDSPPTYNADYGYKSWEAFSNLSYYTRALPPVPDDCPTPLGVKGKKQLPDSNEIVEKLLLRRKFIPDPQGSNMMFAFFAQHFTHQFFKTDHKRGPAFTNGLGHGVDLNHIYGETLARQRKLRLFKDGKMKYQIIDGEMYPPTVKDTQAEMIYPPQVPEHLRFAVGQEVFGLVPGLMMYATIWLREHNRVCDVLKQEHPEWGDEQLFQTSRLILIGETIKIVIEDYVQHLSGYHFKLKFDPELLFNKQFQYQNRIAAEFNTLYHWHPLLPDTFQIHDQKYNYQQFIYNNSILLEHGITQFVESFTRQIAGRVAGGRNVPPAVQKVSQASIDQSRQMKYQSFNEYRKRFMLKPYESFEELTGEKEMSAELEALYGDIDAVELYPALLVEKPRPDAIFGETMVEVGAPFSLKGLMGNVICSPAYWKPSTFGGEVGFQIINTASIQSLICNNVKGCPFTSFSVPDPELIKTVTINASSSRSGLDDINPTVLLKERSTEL

Row | pIC50 | Compound
1 | < 4.00 | COc1ccc(Cn2nnc(O)c2C(=O)Nc2cccc(C(F)(F)F)c2)cc1OC
2 | < 4.00 | O=C(Nc1cccc(C(F)(F)F)c1)c1c(O)nnn1Cc1ccc(OC(F)(F)F)cc1
3 | < 4.00 | O=[N+]([O-])c1cccc(Nc2cccc3onc(O)c23)c1
4 | < 4.00 | Oc1noc2cccc(Nc3cccc(S(F)(F)(F)(F)F)c3)c12
5 | < 4.00 | Oc1noc2cccc(Nc3cc(C(F)(F)F)cc(C(F)(F)F)c3)c12
6 | < 4.00 | Oc1noc2ccc(Nc3cccc(C(F)(F)F)c3)cc12
7 | < 4.00 | Oc1noc2cccc(Nc3cccc(C(F)(F)F)c3)c12
